The series can be described thus: Weight loss rate by thermogravimetric analysis (TG-DTA) to 300° C. under nitrogen. The class given is physicochemical. Particulars: room temperature to 300° C. at 10° C./min, nitrogen gas atmosphere (100 ml/min). As to the method:
Regarding requirement (c), from the viewpoint of the staining of a mold, the emitted amount of VOC, and the weather resistance, the weight loss rate measured in a thermogravimetric analysis at a temperature of 300° C. under a nitrogen gas atmosphere preferably is less than 5% by weight, and more preferably is less than 3% by weight. The weight loss rate measured by the thermogravimetric analysis of a hindered amine light stabilizer (D) to be used for the present invention is a value determined by using a thermo gravimetry differential thermal analyzer (TG-DTA). Described concretely, it is a weight loss rate determined using a thermobalance when the temperature of a hindered amine light stabilizer (D) is increased from room temperature to 300° C. at a rate of 10° C. per minute under a nitrogen gas atmosphere (in a nitrogen flow at a flow rate of 100 ml/min).
From the viewpoint of inhibiting mold staining, the weight loss rate of the nonionic antistatic agent (E) to be used for the present invention measured by thermogravimetric analysis executed at a temperature of 300° C. under a nitrogen atmosphere preferably is less than 20% by weight, and more preferably 5 to 15% by weight. The weight loss rate is determined by the use of a thermo gravimetry differential thermal analyzer (TG-DTA). Described concretely, it is a weight loss rate determined using a thermobalance when the temperature of the nonionic antistatic agent (E) is increased from room temperature to 300° C. at a rate of 10° C. per minute under a nitrogen gas atmosphere (in a nitrogen flow at a flow rate of 100 ml/min).
The weight loss by thermogravimetric analysis (TG-DTA) of a light stabilizer was measured with a thermo gravimetry differential thermal analyzer from room temperature to 300° C. at a temperature increasing rate of 10° C./min under a nitrogen gas atmosphere (gas flow rate: 100 ml/min). […]
For `CC1(C)CC(OC(=O)CCCCCCCCC(=O)OC2CC(C)(C)NC(C)(C)C2)CC(C)(C)N1` [Example D-2, Bis(2,2,6,6-tetramethyl-4-piperidyl) sebacate], the “Weight loss rate by TG-DTA” value came to 19.6 % by weight. Regarding `CC(C)(C)c1ccc(OC(=O)c2cc(C(C)(C)C)c(O)c(C(C)(C)C)c2)c(C(C)(C)C)c1` [Example D-3, 2,4-di-tert-butylphenyl 3,5-di-tert-butyl-4-hydroxybenzoate], the “Weight loss rate by TG-DTA” value was 31.6 % by weight. Under “Stearic acid monoglyceride [Example E-1]” stands 23.8 % by weight.

The values above are taken from US8450400B2, “Polypropylene resin composition and molded article made thereof” (Sumitomo Chemical Company, Limited, priority 2007, dated 2013).
